From US9707239B2, “Compounds that modulate oxidative stress” (vTv Therapeutics LLC, priority 2011, dated 2017)
Entries after “also recorded” stand apart in the source; their conditions may differ.

Key:
[1] = system: Keap1; experiment: HMOX1 induction after Keap1 silencing (shRNA); assay type: cell-based, human; conditions: NHLF cells, FIG. 6
Procedure: Normal human lung fibroblasts were plated in a 12-well tissue culture dish at 16,000 cells/well and allowed to attach overnight. Regular medium was then replaced with 200 μl of fresh growth medium containing 8 μg/ml hexadimethrine bromide (polybrene). Lentiviral transduction particles were then added in the following amounts: Control shRNA (1.1×10^7 TU/ml, Sigma, cat# SHC002V), 15 μl for an MOI of 10; KEAP-1 shRNA (6.3×10^6 TU/ml, Sigma, cat# SHCLNV-TRCN0000046092), 63 μl for an MOI of 20. After 4 hours in the cell culture incubator, another 200 μl of growth medium was added on top of the original volume. Cells were replenished the next day with fresh complete growth medium and were allowed to recover for 24 hours, after which selection medium was applied (complete medium with 1 μg/ml puromycin).
Another method of testing the role of the Nrf2 regulatory pathway on compound activity is to determine the effect of silencing Keap1 on HMOX1 gene expression. It is known that deleting Keap1 will result in the induction of Nrf2 dependent genes but not, to any significant degree, HMOX1. The proposed explanation for this observation is that HMOX1 requires the concomitant derepression of Bach1 activity and that this event is more dependent on active processes (e.g., heme binding, changes in redox potential of the cell, phosphorylation of Bach1, etc.). We therefore tested the ability of Compound 13 and tool compounds to induce HMOX1 in the presence of silencing of Keap1 in normal human lung fibroblasts.
Normal human lung fibroblasts were tested with DMSO, CoPP, Compound 13, and two derivatives including Compound 4 and Compound 8. An electrophile, Compound 1, was also included in the test set. […] On the other hand, induction of HMOX1 by the electrophile Compound 1 was inhibited.

[2] = system: HMOX1; experiment: mRNA expression (Quantigene Plex) in NHLF cells: HMOX1; assay type: cell-based, human; conditions: Table 6, 6 h, mRNA normalized to GAPDH, above DMSO treated cells
Procedure: (§1) Secondary growth of NHLF cells were used for all assays. Cell were thawed and then placed into culture in T225 flasks. The cells were grown to 80% confluency and harvested by washing once with HEPES buffered saline solution and then trypsinizing. Equal numbers (7×10^3 cells per well) of NHLF cells were plated in 96 well tissue culture plates (Corning). Cells were incubated overnight in FGM-2 medium prior to exposure to compound. Cells were treated with either DMSO or a compound as described below for 6 h. Preparation of cell lysates was carried out according to instructions using the Quantigene Reagent system 2.0 protocol (Panomics). mRNA induction was detected from cell lysate using the Quantigene Plex 2.0 Assay Kit (Panomics) on the Luminex platform (BIO-RAD). Expression of GAPDH mRNA was used as the internal control for the Quantigen Plex 2.0 Assay. The data in Tables 5 and 6 represents the fold change of target mRNA expression, normalized to control values, above DMSO treated cells.

[3] = system: NQO1; experiment: mRNA expression (Quantigene Plex) in NHLF cells: NQO1; assay type: cell-based, human; conditions: Table 6, 6 h, mRNA normalized to GAPDH, above DMSO treated cells
Procedure: as §1

[4] = system: TXNRD1; experiment: mRNA expression (Quantigene Plex) in NHLF cells: TXNRD1; assay type: cell-based, human; conditions: Table 6, 6 h, mRNA normalized to GAPDH, above DMSO treated cells
Procedure: as §1

[5] = system: HSPA6; experiment: mRNA expression (Quantigene Plex) in NHLF cells: HSPA6; assay type: cell-based, human; conditions: Table 6, 6 h, mRNA normalized to GAPDH, above DMSO treated cells
Procedure: as §1

[6] = system: ICAM; experiment: mRNA expression (Quantigene Plex) in NHLF cells: ICAM; assay type: cell-based, human; conditions: Table 6, 6 h, mRNA normalized to GAPDH, above DMSO treated cells
Procedure: as §1

[7] = system: GADD45A; experiment: mRNA expression (Quantigene Plex) in NHLF cells: GADD45A; assay type: cell-based, human; conditions: Table 6, 6 h, mRNA normalized to GAPDH, above DMSO treated cells
Procedure: as §1

[8] = system: NHLF cells; experiment: ROS measurements (H2DCF-DA imaging); assay type: cell-based, human; conditions: 1 hr; for ROS production (in words): cell-by-cell imaging, FIG. 3A/3B; for elevation of ROS production: relative to untreated controls, FIG. 3A
Procedure: Secondary growth of NHLF cells were used for all assays. Cells were cultured as above. Cells were plated into 384-well BD-Optilux Plates at 2,000 cells/well and cultured overnight at 37° C. and 5% CO2. The following day, cell were washed and 2,7-dihydrodichlorofluorescin diacetate (H2DCF-DA), 10 μM ferric ammonium citrate (FAC), and Hoechst stain were added to cells for 30 min. The cells were washed once with PBS to remove any H2DCF-DA not taken up by cells. Test compounds were prepared in FBM-2 media at the desired concentrations. The plates and stain-treated cells were incubated with test compounds for 1 hr at 37° C. and 5% CO2. Following the incubation period, ROS generation was determined by imaging the cells on a GE INcell 1000 imager (Hoechst Ex. 360 Em. 535; H2DCF-DA 488 Ex. 480 Em. 535). ROS levels were determined and quantified using GE IN Cell Analyzer Software.
In addition to gene profiling, the requirement for ROS generation or chemical reactivity was tested. ROS generation was measured using an automated imaging technique. Compound 13 as well as two other compounds that were found in the screening set were tested in this experiment. Untreated NHLF cells, NHLF cells treated with the HMOX1 inducer CoPP (a negative control), and NHLF cells treated with curcumin or celestrol (positive controls) were included as controls. […] Further experiments were also conducted on chemical derivatives of Compound 13. In those experiments, all compounds tested were found not to induce an elevation of ROS levels in the cell (FIG. 3B). Thus, Compound 13 and related compounds represent a class of agents that elevate HMOX1 production without elevating ROS production.

[9] = system: NHLF cells; experiment: Cytoprotection of cisplatin (CDDP)-treated NHLF cells (propidium iodide staining); assay type: cell-based
Procedure: (§2) A key outcome of Bach1 derepression and Nrf2 activation are the induction of cytoprotective genes. A method to test such cytoprotection is to assess the ability of a compound to protect normal human cells such as lung fibroblasts from toxicity due to cisplatin exposure. A model of cellular cytoprotection was established whereby normal human lung fibroblasts were treated with Bach1 modulators and then subsequently exposed to cisplatin. NHLF cells are very sensitive to cisplatin exposure; following a dose of 200 uM cisplatin, >90% of NHLF cells are propidium iodide positive, a measure of cell death.

[10] = system: HMOX1; experiment: HMOX1 induction in NHLF cells in the cisplatin cytoprotection model; assay type: cell-based, human; conditions: compound 24 hours prior to cisplatin, FIG. 8
Procedure: as §2

[11] = system: HMOX1; experiment: Effect of NAC on compound induction of HMOX gene expression; assay type: cell-based, human; conditions: NHLF cells pretreated with 5 mM NAC 1 hr, compound 6 h, FIG. 4
Procedure: NHLF cells were grown to 80% confluency and harvested by washing once with HEPES and then trypsinizing. Equal numbers (7×10^4 cells per well) of NHLF cells were plated in 96 well tissue culture (Corning) plates. Cells were incubated overnight in FGM-2 medium prior to exposure to compound. Cells were pretreated with 5 mM N-acetyl cysteine for 1 hr. Cells were treated with either DMSO or compound for 6 h. Preparation of cell lysates was carried out according to Quantigene Reagent system 2.0 protocol (Panomics). Heme oxygenase mRNA induction was detected from cell lysate using the Quantigene Plex 2.0 Assay Kit (Panomics) on the Luminex platform (BIO-RAD). Expression of GAPDH mRNA was used as the internal control for the Quantigen Plex 2.0 Assay. Heme oxygenase data represents the fold change, normalized to control values, above DMSO treated cells.
A further test of the hypothesis that Compound 13 induces HMOX1 with minimal alteration of cellular redox levels or chemical reactivity was carried out by treating cells with N-acetyl cysteine (NAC). This compound acts to restore cellular glutathione levels and thus prevent oxidative stress. The degree to which NAC can suppress HMOX1 induction is an indicator of the amount of chemical reactivity or ROS stress that a compound is imposing on the cell and thus activating phase II gene transcription. […] Coupled with the data shown in FIG. 3, it is concluded that Compound 13 induces HMOX1 with minimal elevation of ROS or NAC-sensitive chemical reactivity.

Structure (SMILES) | HMOX1 (fold induction) [2] [fold induction] | NQO1 (fold induction) [3] [fold induction] | TXNRD1 (fold induction) [4] [fold induction] | HSPA6 (fold induction) [5] [fold induction] | ICAM1 (fold induction) [6] [fold induction] | GADD45A (fold induction) [7] [fold induction] | ROS production (in words) [8] | other results
CCOC(=O)/C=C/c1cnc2ccccc2c1S(=O)(=O)C1CCOC1C (stereo not drawn) [Compound 1, (E)-3-[4-(2-Methyl-tetrahydro-furan-3-sulfonyl)-quinolin-3-yl]-acrylic acid ethyl ester] | – | – | – | – | – | – | – | HMOX1 induction in the presence of Keap1 silencing [1]: inhibited
CC1OCCC1S(=O)(=O)c1c(-c2ccc(C(F)(F)F)cc2)cnc2ccccc12 (stereo not drawn) [Compound 3, 4-(2-Methyl-tetrahydro-furan-3-sulfonyl)-3-(4-trifluoromethyl-phenyl)-quinoline] | 45.17 | 1.69 | 1.47 | 2.71 | 1.47 | 1.37 | no demonstrable increase in ROS production | –
COC(=O)c1ccc2[nH]c(Nc3nc4ccccc4s3)nc2c1 [Compound 4, 2-(Benzothiazol-2-ylamino)-1H-benzoimidazole-5-carboxylic acid methyl ester] | 56.15 | 1.85 | 1.74 | 1.08 | 0.77 | 2.00 | no demonstrable increase in ROS production | HMOX1 induction in the presence of Keap1 silencing [1]: unaffected in their ability to induce HMOX1 in the presence of Keap1 silencing; also recorded: behaves similarly to CoPP induction
COC(=O)[C@]12CCC(C)(C)CC1C1C(=O)C=C3[C@@]4(C)CC(C#N)C(=O)C(C)(C)[C@@H]4CC[C@@]3(C)[C@]1(C)CC2 (stereo partly drawn) [Compound 5, (4aS,6aR,6bS,8aR,12aS)-11-Cyano-2,2,6a,6b,9,9,12a-heptamethyl-10,14-dioxo-1,3,4,5,6,6a,6b,7,8,8a,9,10,11,12,12a,14, 14a,14b-octadecahydro-2H-picene-4a-carboxylic acid methyl ester, reference compound] | 23.97 | 2.01 | 1.83 | 1.60 | 1.16 | 0.89 | no demonstrable increase in ROS production | –
Cc1nc(Nc2nc3cc(C(=O)NCCOCCN)ccc3[nH]2)sc1C [Compound 11, 2-(4,5-Dimethyl-thiazol-2-ylamino)-1H-benzoimidazole-5-carboxylic acid [2-(2-amino-ethoxy)-ethyl]-amide] | – | – | – | – | – | – | – | protection against cisplatin toxicity ([9]; NHLF cells, compound 24 hours prior to cisplatin exposure, FIG. 8): failed to protect NHLF cells against cisplatin toxicity; also recorded: failed to protect cells from CDDP-mediated cytotoxicity; HMOX1 induction [10]: inactive HMOX1 inducers; also recorded: did not induce HMOX1
CC1=C(O)C(=O)C=C2C1=CC=C1[C@@]2(C)CC[C@@]2(C)[C@@H]3C[C@](C)(C(=O)O)CC[C@]3(C)CC[C@]12C [celestrol, reference compound] | – | – | – | – | – | – | – | elevation of ROS production [8]: ~2 fold; effect of N-acetyl cysteine (NAC) on HMOX1 induction [11]: inhibited nearly fully by NAC; also recorded: fully suppressed in the presence of NAC
N.N.[Cl][Pt][Cl] [cisplatin, reference compound] | – | – | – | – | – | – | – | NHLF cells propidium iodide positive (cell death) ([9]; 200 uM cisplatin): > 90%
COc1cc(/C=C/C(=O)CC(=O)/C=C/c2ccc(O)c(OC)c2)ccc1O [curcumin, reference compound] | – | – | – | – | – | – | – | elevation of ROS production [8]: approximately 3 fold; effect of N-acetyl cysteine (NAC) on HMOX1 induction [11]: inhibited nearly fully by NAC; also recorded: fully suppressed in the presence of NAC
